Source: article doi:10.1101/2020.06.11.145995v1 (biorxiv, 2020)
Where two headings read alike, the source gives them in different places.

Columns and labels:
Assay in all cases: biochemical
KIT(V559D,V654A) = KIT(V559D,V654A) (Homo sapiens, UniProt P10721, V559D/V654A)
GCN2(Kin.Dom.2,S808G) = GCN2(Kin.Dom.2,S808G) (Homo sapiens, UniProt Q9P2K8, S808G)
FLT3-autoinhibited = FLT3-autoinhibited (Homo sapiens, UniProt P36888); conditions: read-out: CPT-1-70-1 (1uM) % control
KIT-autoinhibited = KIT-autoinhibited (Homo sapiens, UniProt P10721); conditions: read-out: CPT-1-70-1 (1uM) % control
Sequence of KIT-autoinhibited (P10721 whole entry): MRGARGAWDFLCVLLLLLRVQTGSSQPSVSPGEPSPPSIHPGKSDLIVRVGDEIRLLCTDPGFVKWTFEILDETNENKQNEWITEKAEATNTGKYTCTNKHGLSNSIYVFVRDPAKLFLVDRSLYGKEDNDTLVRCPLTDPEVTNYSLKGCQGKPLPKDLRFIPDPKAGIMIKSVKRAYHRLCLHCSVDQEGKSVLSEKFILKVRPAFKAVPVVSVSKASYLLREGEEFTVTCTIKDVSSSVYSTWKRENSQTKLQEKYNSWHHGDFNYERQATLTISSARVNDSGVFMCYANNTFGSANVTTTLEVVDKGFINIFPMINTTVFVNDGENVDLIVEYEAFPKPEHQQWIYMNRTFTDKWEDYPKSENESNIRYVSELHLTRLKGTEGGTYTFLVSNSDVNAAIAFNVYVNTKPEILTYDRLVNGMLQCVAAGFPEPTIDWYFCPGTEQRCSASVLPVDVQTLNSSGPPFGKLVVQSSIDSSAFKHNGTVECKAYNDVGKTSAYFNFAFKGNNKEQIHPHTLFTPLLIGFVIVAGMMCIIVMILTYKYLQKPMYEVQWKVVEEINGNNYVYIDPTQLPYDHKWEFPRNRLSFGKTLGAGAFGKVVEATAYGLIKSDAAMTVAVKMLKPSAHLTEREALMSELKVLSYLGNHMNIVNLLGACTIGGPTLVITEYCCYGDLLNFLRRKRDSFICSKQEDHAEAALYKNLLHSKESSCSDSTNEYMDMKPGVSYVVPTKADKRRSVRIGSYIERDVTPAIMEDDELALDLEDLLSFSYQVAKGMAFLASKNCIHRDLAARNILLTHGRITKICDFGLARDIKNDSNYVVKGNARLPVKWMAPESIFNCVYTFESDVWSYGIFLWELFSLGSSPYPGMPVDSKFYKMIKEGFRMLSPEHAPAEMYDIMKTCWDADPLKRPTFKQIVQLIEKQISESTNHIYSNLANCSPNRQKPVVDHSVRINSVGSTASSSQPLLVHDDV

NEK10 = NEK10 (Homo sapiens, UniProt Q6ZWH5); conditions: read-out: CPT-1-70-1 (1μM) % control
NIK = NIK (Homo sapiens, UniProt Q99558); conditions: read-out: CPT-1-70-1 (1μM) % control
PIK3CA(Q546K) = PIK3CA(Q546K) (Homo sapiens, UniProt P42336, Q546K); conditions: read-out: CPT-1-70-1 (1μM) % control
PIK3CB = PIK3CB (Homo sapiens, UniProt P42338); conditions: read-out: CPT-1-70-1 (1μM) % control
PIK3CD = PIK3CD (Homo sapiens, UniProt O00329); conditions: read-out: CPT-1-70-1 (1μM) % control
PIK3CG = PIK3CG (Homo sapiens, UniProt P48736); conditions: read-out: CPT-1-70-1 (1μM) % control
PIK4CB = PIK4CB (Homo sapiens, UniProt Q9UBF8); conditions: read-out: CPT-1-70-1 (1μM) % control
PIM1 = PIM1 (Homo sapiens, UniProt P11309); conditions: read-out: CPT-1-70-1 (1μM) % control
PIM2 = PIM2 (Homo sapiens, UniProt Q9P1W9); conditions: read-out: CPT-1-70-1 (1μM) % control
PIM3 = PIM3 (Homo sapiens, UniProt Q86V86); conditions: read-out: CPT-1-70-1 (1μM) % control
PIP5K1A = PIP5K1A (Homo sapiens, UniProt Q99755); conditions: read-out: CPT-1-70-1 (1μM) % control
PIP5K1C = PIP5K1C (Homo sapiens, UniProt O60331); conditions: read-out: CPT-1-70-1 (1μM) % control
Sequence of PIP5K1C (O60331 whole entry): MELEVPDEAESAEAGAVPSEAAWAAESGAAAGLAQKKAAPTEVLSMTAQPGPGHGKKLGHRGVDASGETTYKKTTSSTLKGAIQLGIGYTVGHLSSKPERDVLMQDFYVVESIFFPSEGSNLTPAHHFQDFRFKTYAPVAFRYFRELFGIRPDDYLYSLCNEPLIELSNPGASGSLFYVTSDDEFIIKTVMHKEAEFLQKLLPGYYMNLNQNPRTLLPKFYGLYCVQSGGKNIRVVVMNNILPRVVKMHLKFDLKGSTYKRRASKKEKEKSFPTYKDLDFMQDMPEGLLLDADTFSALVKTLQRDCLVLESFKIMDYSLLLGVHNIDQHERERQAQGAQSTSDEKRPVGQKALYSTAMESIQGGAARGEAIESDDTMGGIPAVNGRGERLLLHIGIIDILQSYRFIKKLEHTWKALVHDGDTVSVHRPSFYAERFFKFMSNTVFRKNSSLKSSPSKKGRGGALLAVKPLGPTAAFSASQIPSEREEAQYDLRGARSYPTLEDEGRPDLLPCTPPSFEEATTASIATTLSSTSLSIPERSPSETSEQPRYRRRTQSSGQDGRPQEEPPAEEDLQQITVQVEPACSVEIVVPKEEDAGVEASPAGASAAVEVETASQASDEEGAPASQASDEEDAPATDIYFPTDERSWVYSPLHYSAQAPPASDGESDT

PIP5K2B = PIP5K2B (Homo sapiens, UniProt P78356); conditions: read-out: CPT-1-70-1 (1μM) % control
Sequence of PIP5K2B (P78356 whole entry): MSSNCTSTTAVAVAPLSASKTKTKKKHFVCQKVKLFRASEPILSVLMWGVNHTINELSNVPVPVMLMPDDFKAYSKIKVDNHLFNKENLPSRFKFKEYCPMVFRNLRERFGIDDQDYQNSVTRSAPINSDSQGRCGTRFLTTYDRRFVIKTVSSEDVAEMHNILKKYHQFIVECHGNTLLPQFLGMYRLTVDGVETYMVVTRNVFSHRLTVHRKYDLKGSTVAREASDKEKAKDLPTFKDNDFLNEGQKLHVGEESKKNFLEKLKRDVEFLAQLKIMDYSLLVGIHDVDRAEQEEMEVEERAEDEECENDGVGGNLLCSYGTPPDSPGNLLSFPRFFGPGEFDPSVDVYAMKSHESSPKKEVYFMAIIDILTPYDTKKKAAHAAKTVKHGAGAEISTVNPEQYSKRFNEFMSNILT

PIP5K2C = PIP5K2C (Homo sapiens, UniProt Q8TBX8); conditions: read-out: CPT-1-70-1 (1μM) % control
PKAC-alpha = PKAC-alpha (Homo sapiens, UniProt P17612); conditions: read-out: CPT-1-70-1 (1μM) % control
PKAC-beta = PKAC-beta (Homo sapiens, UniProt P22694); conditions: read-out: CPT-1-70-1 (1μM) % control
PKMYT1 = PKMYT1 (Homo sapiens, UniProt Q99640); conditions: read-out: CPT-1-70-1 (1μM) % control
PKN1 = PKN1 (Homo sapiens, UniProt Q16512); conditions: read-out: CPT-1-70-1 (1μM) % control
PKN2 = PKN2 (Homo sapiens, UniProt Q16513); conditions: read-out: CPT-1-70-1 (1μM) % control
Sequence of PKN2 (Q16513 whole entry): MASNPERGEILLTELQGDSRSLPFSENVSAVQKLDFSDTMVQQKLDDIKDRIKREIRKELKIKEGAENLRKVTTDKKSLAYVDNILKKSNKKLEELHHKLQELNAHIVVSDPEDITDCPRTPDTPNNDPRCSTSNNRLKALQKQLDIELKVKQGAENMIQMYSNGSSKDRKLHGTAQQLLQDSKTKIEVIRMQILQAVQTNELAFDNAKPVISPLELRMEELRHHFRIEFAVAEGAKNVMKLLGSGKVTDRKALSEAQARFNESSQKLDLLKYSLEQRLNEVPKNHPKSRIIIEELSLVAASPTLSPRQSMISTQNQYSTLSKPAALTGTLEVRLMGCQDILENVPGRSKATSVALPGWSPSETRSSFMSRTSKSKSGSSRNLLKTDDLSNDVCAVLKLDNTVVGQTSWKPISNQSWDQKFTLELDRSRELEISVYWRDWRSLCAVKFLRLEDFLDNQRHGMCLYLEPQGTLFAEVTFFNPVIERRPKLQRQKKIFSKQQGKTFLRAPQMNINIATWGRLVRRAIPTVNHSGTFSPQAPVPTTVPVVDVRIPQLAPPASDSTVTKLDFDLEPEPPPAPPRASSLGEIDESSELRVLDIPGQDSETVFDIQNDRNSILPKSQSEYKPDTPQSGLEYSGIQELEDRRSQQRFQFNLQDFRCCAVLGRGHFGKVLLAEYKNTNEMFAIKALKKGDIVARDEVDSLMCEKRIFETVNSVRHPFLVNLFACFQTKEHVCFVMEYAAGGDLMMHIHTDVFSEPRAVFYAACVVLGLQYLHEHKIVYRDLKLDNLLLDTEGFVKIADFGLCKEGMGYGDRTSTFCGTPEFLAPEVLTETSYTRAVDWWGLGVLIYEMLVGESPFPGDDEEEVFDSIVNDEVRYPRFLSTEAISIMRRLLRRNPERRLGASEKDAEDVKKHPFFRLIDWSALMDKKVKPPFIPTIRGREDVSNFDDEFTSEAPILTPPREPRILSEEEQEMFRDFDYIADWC

SGK = SGK (Homo sapiens, UniProt O00141); conditions: read-out: CPT-1-70-1 (1μM) % control
SGK2 = SGK2 (Homo sapiens, UniProt Q9HBY8); conditions: read-out: CPT-1-70-1 (1μM) % control
WNK1 = WNK1 (Homo sapiens, UniProt Q9H4A3); conditions: read-out: CPT-1-70-1 (1μM) % control
WNK3 = WNK3 (Homo sapiens, UniProt Q9BYP7); conditions: read-out: CPT-1-70-1 (1μM) % control
PFCDPK1(P.falciparum) = PFCDPK1(P.falciparum) (Plasmodium falciparum, UniProt P62344); conditions: read-out: CPT-1-70-1 (1μM) % control
PFPK5(P.falciparum) = PFPK5(P.falciparum) (Plasmodium falciparum, UniProt P61075); conditions: read-out: CPT-1-70-1 (1μM) % control
[1] = read-out: CPT-1-70-1 (1uM) % control
[2] = read-out: HYJ-2-002-1 (1uM) % control

Sequence of GCN2(Kin.Dom.2,S808G) (Q9P2K8 whole entry S808G): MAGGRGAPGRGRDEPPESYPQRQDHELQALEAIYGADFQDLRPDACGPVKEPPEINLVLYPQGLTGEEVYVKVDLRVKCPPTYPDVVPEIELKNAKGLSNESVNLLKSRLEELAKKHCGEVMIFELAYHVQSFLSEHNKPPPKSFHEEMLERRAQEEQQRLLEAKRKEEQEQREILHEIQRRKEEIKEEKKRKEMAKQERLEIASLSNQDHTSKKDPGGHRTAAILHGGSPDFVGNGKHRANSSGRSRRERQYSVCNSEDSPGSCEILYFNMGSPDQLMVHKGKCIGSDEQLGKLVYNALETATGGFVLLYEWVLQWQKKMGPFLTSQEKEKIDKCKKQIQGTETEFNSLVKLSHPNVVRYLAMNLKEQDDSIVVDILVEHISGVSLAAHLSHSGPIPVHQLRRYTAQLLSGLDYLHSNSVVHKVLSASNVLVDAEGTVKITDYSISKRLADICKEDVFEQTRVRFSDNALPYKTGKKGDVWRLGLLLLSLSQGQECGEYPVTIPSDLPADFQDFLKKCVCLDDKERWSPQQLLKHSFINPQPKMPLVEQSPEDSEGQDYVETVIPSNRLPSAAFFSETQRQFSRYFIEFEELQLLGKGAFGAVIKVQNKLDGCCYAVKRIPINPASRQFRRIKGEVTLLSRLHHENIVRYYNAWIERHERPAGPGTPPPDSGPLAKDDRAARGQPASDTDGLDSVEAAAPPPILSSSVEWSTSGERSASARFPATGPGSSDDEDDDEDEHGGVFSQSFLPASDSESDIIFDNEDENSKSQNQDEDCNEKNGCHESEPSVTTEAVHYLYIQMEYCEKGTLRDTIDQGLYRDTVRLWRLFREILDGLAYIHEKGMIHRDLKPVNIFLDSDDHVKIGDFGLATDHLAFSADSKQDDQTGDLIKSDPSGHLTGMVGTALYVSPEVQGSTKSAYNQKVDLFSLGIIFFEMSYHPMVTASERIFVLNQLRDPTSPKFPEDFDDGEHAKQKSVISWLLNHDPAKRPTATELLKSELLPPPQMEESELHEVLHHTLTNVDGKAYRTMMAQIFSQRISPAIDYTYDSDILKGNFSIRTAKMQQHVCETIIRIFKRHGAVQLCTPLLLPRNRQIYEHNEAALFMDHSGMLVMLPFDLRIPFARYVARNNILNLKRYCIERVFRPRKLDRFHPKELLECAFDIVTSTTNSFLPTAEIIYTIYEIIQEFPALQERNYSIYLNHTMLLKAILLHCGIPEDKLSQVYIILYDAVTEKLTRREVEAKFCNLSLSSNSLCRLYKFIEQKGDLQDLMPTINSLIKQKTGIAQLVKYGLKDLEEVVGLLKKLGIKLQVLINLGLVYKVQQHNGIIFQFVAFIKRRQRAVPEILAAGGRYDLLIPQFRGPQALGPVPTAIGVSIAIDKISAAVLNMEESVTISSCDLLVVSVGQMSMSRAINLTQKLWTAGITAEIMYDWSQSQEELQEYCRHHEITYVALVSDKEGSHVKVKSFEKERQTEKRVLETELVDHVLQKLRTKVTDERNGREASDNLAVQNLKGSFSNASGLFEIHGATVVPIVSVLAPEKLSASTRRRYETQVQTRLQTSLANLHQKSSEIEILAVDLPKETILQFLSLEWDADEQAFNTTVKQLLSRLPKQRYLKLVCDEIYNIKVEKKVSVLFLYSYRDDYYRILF
Sequence of KIT(V559D,V654A) (P10721 whole entry V559D/V654A): as the sequence (P10721 whole entry) above, with V559D, V654A counted along it

SMILES: CN1CCN(c2ccc(Nc3nc(Oc4ccc(NC(=O)CCl)cc4)c4cc[nH]c4n3)cc2)CC1 [CPT1-70-1]
- remaining activity at 1 µM (KIT(V559D,V654A); [1]): 100%
- remaining activity at 1 µM (GCN2(Kin.Dom.2,S808G); [1]): 13%
- remaining activity at 1 µM (FLT3-autoinhibited): 38%
- remaining activity at 1 µM (KIT-autoinhibited): 39%
- remaining activity at 1 µM (NEK10): 14%
- remaining activity at 1 µM (NIK): 100%
- remaining activity at 1 µM (PIK3CA(Q546K)): 100%
- remaining activity at 1 µM (PIK3CB): 100%
- remaining activity at 1 µM (PIK3CD): 100%
- remaining activity at 1 µM (PIK3CG): 100%
- remaining activity at 1 µM (PIK4CB): 100%
- remaining activity at 1 µM (PIM1): 100%
- remaining activity at 1 µM (PIM2): 100%
- remaining activity at 1 µM (PIM3): 81%
- remaining activity at 1 µM (PIP5K1A): 13%
- remaining activity at 1 µM (PIP5K1C): 57%
- remaining activity at 1 µM (PIP5K2B): 100%
- remaining activity at 1 µM (PIP5K2C): 63%
- remaining activity at 1 µM (PKAC-alpha): 69%
- remaining activity at 1 µM (PKAC-beta): 100%
- remaining activity at 1 µM (PKMYT1): 94%
- remaining activity at 1 µM (PKN1): 79%
- remaining activity at 1 µM (PKN2): 100%
- remaining activity at 1 µM (SGK): 26%
- remaining activity at 1 µM (SGK2): 100%
- remaining activity at 1 µM (WNK1): 100%
- remaining activity at 1 µM (WNK3): 100%
- remaining activity at 1 µM (PFCDPK1(P.falciparum)): 100%
- remaining activity at 1 µM (PFPK5(P.falciparum)): 100%

SMILES: CCN1CCN(Cc2ccc(NC(=O)c3ccc(C)c(CCc4cnc5[nH]ccc5c4OC)c3)cc2C(F)(F)F)CC1 [HYJ-2-002-1]
- remaining activity at 1 µM (KIT(V559D,V654A); [2]): 28%
- remaining activity at 1 µM (GCN2(Kin.Dom.2,S808G); [2]): 14%
